Data on one compound can be found in US20160067211A1, “PHARMACEUTICAL COMPOSITION” (Eberhard Karls Universitaet Tuebingen Medizinische Fakultaet, priority 2013, published 2016).

Each structure is given as a SMILES string.

The subject of test [1] is estrogen receptors of the rat uterus. The conditions noted are these: cited from earlier work.
In test [2] the test system is angiogenesis. The conditions noted are these: chorioallantois membrane assays in vivo; cited from earlier work.
Test [3] relates to LOXIMVI melanoma cells. The test is described as follows: Organotypic human epidermal skin reconstructs, LOXIMVI. In kind it is cell-based. The conditions noted are these: same treatment conditions (100 μM), untreated 100% MIB1 positive. The protocol:
FIG. 11: 6-PN and 8-PN reduce proliferation and invasion of BLM and LOXIMVI melanoma cells in human epidermal skin reconstructs and induce little embryo toxicity. (A) BLM melanoma cells and keratinocytes were seeded on top of a collagen matrix populated by fibroblasts. After 16 days a keratinizing stratified epithelium with a rudimentary corium is formed. […] (B) Similar results were obtained for LOXIMVI melanoma cells under the same treatment conditions. Only nests of dead, MIB1 negative LOXIMVI cells were detected after treatment with the PNs. […]
In this assay, keratinocytes and melanoma cells are seeded on top of a collagen matrix populated by fibroblasts. […] Untreated control BLM cells (depicting 70-80% proliferation, determined by MIB1 immunhistochemistry) had formed a large tumor in the epidermal part of the reconstruct and had invaded the corium (FIG. 11A, upper panel). To determine the amount of proliferating cells, the number of MIB1 positive melanoma cells per power field in the epidermal part of the reconstruct at the epidermal-dermal border was counted (40× magnification, n=5 adjacent fields examined). Further, the number of melanoma cells invading the dermal part of the reconstruct was counted in the same high power fields. In reconstructs with untreated BLM cells, 103±15 MIB1 positive cells and 39±13 invasive cells were counted (FIG. 11A, upper panel). […]

Test [4] deals with pS6P, P70S6 kinase, pERK, caspase-3, Bcl-xl in SK-MEL-28 melanoma cells. The test is described as follows: Western blot of signalling proteins. In kind it is cell-based, human. The conditions noted are these: SK-MEL-28, 100 μM. The protocol: FIG. 8: 6-PN and 8-PN decrease expression of pS6p via down regulation of pERK/pP90. Western blot analysis of SK-MEL-28 melanoma cells 1 hour, 2 hours, 4 hours, 12 hours, and 24 hours after treatment with 100 μM 6-PN or 8-PN. 6-PN and 8-PN induced down regulation of pS6p accompanied by a decrease of pERK and pP90, respectively. 6-PN and 8-PN induced time dependent increase of p70s6-kinase.
(§1) The following antibodies were used: Anti-Vinculin and Anti-Actin (1:5000, Sigma-Aldrich), Anti-Acetyl-Histon H3 (1:5000, Millipore, Billerica, USA), Anti-Caspase-3 (1:1000), Anti-AKT, Anti-pAKT, Anti-ERK, Anti-pERK, […], Anti-p70S6 Kinase, and Anti-pS6 protein (1:1000), all from Cell Signaling, Frankfurt, Germany), Anti-LC3 (1:5000, Sigma-Aldrich).
To further analyze the type of cell death induced by 6-PN and 8-PN, western blot analyses of SK-MEL-28 melanoma cells were performed 1, 2, 4, 12 and 24 hours after the treatment with 100 μM 6-PN and 8-PN. […] Upon PN treatment an inconsistent expression of oncogenic AKT and phospho-AKT (pAKT) was detected. […] Thus, there was an obvious discrepancy between the expression of pAKT and pS6P. Therefore it was first also looked for the expression of P70S6 kinase and its phosphorylated form. […] Therefore it was next asked whether the S6P could be phosphorylated by a different mechanism. In this respect, activated ERK can phosphorylate the p90 ribosomal S6 kinase (pP90). pP90 also phosphorylates the S6P (in addition to the P70S6 kinase). Since the pP70S6 kinase was absent in the used cells (SK-MEL-28 and BLM), it was hypothesized that the phosphorylation of the S6P was conducted via the pERK/pP90 pathway, independent from the P70S6 signalling. This hypothesis was supported by the parallel down-regulation of the bands for pP90 (Thr359/Ser363) and pS6P 12 hours after the treatment with 6-PN, and the reappearance of both bands after 24 hours (FIG. 8). […] The western blot experiments were repeated with BLM cells under the same treatment conditions and yielded similar results (not shown).

Test [5] deals with LC3 in SK-MEL-28 melanoma cells. In words: Western blot LC3 (autophagy), SK-MEL-28. Format: cell-based, human. The conditions noted are these: SK-MEL-28, 100 μM, after 12-24 hours. The protocol: (A) Cell cycle FACS analyses of PI stained BLM and SK-MEL-28 melanoma cells. 100 μM of 8-PN-induced a G2 arrest in both cells. (B) FACS analyses of BLM and SK-MEL-28 melanoma cells treated with 100 μM 6-PN or 8-PN and stained for annexin V/PI; staurosporin was used as control for apoptosis induction and DMSO as vehicle control. […] (C) BLM and SK-MEL-28 melanoma cells were treated with 100 μM of PNs; TSA, SAHA and EMSO were used as controls.
as §1
Since it has been speculated that the formation of intracytoplasmic vacuoles in pancreatic or breast cancer cells by 6-PN and 8-PN observed in pervious studies might represent an induction of autophagy, this issue was further investigated on a molecular level. BLM and SK-MEL-28 melanoma cells were treated with 100 μM of 6-PN, 8-PN, SAHA or TSA (and with DMSO as control), and the treated cells were lysed for protein extraction after 1 hour, 2 hours, 4 hours, 12 hours and 24 hours. […]

Turning to `CC(C)=CCc1c(O)cc(O)c2c1OC(c1ccc(O)cc1)CC2=O` (centres unmarked) [8-PN, 5,7-Dihydroxy-2-(4-hydroxy-phenyl)-8-(3-methyl-but-2-enyl)-chroman-4-one], in test [1], the “binding affinity for estrogen receptors” value is recorded as “strong binding affinity”. The angiogenesis entry in test [2] is given as “inhibits the angiogenesis”. For the same compound, the “cell proliferation of LOXIMVI cells (MIB1)” value in test [3] is recorded as “completely inhibited”. In addition, in test [4] (1-24 hours), the “protein levels of caspase-3 and Bcl-xl” value is recorded as “decreased protein levels”. Also, the “phospho-S6 protein (pS6P) expression” value in test [4] (after 4 hours, 12 hours, and 24 hours) was “strongly down regulated”. The pERK expression result in test [4] (after 12 hours and 24 hours) was “strong down regulation”. Further, the P70S6 kinase bands result in test [4] (time-dependent (1-24 hours)) was “down-regulated”. For the same compound, in test [5], the “shift from LC3-I to LC3-II (autophagy)” value is “clearly induced the shift”.
